We go through five compounds from patent US9233983B2, “Substituted hetero-bicyclic compounds, compositions and medicinal applications thereof” (ADVINUS THERAPEUTICS LIMITED, priority 2012, dated 2016).

Assay [1] addresses human Bruton's Tyrosine Kinase (Btk) (Homo sapiens (Human), UniProt Q06187). Briefly: Recombinant Human Bruton's Tyrosine Kinase (Btk) Inhibition Assay (HTRF KinEASE-TK). In kind it is biochemical. The conditions noted are these: 20 ng/ml rhBtk, 77 μM ATP (KM), 1 μM TK-Biotin substrate, 90 min; read-out: hBTK IC50. (In general: Time-resolved FRET reads energy transfer from a long-lived donor to a nearby acceptor.)

The subject of assay [2] is mouse splenocytes. Briefly: Inhibition of B Cell Activation as Measured by CD69 Expression in Mouse Splenocytes. In kind it is cell-based. The conditions noted are these: Splenocyte; C57/BL6 splenocytes, 3 ug/mL goat anti-mouse IgM, 18-20 hrs, CD69+ve cells within CD19; read-out: Mouse spleenocyte IC50. The procedure, abridged: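 Total mouse splenocytes pre-incubated with compounds (half-log dilutions; DMSO 200× stocks from 2 mM) 30 min at 37 °C, then stimulated with 3 ug/mL anti-mouse IgM for 18-20 hrs. CD69+ cells within CD19+ B cells quantified by flow cytometry; IC50 from variable-slope sigmoid dose-response fit.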

Chain of human Bruton's Tyrosine Kinase (Btk) (Q06187 whole entry): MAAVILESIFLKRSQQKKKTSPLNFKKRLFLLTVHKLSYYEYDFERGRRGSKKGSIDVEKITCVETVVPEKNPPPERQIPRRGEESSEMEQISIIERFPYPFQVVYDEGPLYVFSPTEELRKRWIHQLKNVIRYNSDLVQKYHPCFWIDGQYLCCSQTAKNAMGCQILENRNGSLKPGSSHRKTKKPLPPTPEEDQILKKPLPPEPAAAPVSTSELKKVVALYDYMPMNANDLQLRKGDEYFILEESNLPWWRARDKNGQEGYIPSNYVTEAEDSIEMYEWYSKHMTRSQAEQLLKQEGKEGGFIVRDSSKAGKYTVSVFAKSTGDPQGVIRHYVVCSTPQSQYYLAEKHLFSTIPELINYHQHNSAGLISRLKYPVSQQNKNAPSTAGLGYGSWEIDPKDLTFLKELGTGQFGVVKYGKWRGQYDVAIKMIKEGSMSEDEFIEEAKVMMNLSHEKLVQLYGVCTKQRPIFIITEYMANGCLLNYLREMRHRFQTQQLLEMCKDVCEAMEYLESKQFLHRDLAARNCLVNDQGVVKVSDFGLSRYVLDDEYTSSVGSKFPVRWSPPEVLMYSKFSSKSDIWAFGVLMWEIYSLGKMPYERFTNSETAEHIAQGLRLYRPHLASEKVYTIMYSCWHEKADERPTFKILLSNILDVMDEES

Turning to `CCN1CC=C(c2cc3c(-c4cccc(N5CCOc6cc(C7CC7)cc(F)c6C5=O)c4CO)ccnc3[nH]2)CC1` [Example R-3, 8-cyclopropyl-4-[3-[2-(1-ethyl-3,6-dihydro-2H-pyridin-4-yl)-1H-pyrrolo[2,3-b]pyridin-4-yl]-2-(hydroxymethyl)phenyl]-6-fluoro-2,3-dihydro-1,4-benzoxazepin-5-one], the IC50 in assay [1] was found to be 22 nM; in assay [2] it was 85 nM.

With `CN1CC(N2CC=C(c3cc4c(-c5cccc(N6CCOc7cc(C8CC8)cc(F)c7C6=O)c5CO)ccnc4[nH]3)CC2)C1` [Example R-4, 8-cyclopropyl-6-fluoro-4-[2-(hydroxymethyl)-3-[2-[1-(1-methylazetidin-3-yl)-3,6-dihydro-2H-pyridin-4-yl]-1H-pyrrolo[2,3-b]pyridin-4-yl]phenyl]-2,3-dihydro-1,4-benzoxazepin-5-one], the half-inhibitory concentration (IC50) in assay [1] was found to be 1.6 nM; in assay [2] it was 70 nM.

Regarding `CCN1CC(C(=O)N2CC=C(c3cc4c(-c5cccc(N6CCOc7cc(C8CC8)cc(F)c7C6=O)c5CO)ccnc4[nH]3)CC2)C1` [Example R-5, 8-cyclopropyl-4-[3-[2-[1-(1-ethylazetidine-3-carbonyl)-3,6-dihydro-2H-pyridin-4-yl]-1H-pyrrolo[2,3-b]pyridin-4-yl]-2-(hydroxymethyl)phenyl]-6-fluoro-2,3-dihydro-1,4-benzoxazepin-5-one], the 50% inhibitory concentration (IC50) turned out to be 0.75 nM in assay [1] and 51 nM in assay [2].

`C=CC(=O)N1CCCC(n2cc(-c3cc4c(-c5cccc(N6CCOc7cc(C8CC8)ccc7C6=O)c5CO)ncnc4[nH]3)cn2)C1` (stereo not shown) [Example S-1, 8-cyclopropyl-4-[2-(hydroxymethyl)-3-[6-[1-(1-prop-2-enoyl-3-piperidyl)pyrazol-4-yl]-7H-pyrrolo[2,3-d]pyrimidin-4-yl]phenyl]-2,3-dihydro-1,4-benzoxazepin-5-one]: the half-maximal inhibitory concentration (IC50) in assay [1] was determined as 4 nM; in assay [2], 130 nM.

As for `N#CCN1CC(n2cc(-c3cc4c(-c5cccc(N6CCOc7cc(C8CC8)ccc7C6=O)c5CO)ccnc4[nH]3)cn2)C1` [Example S-2, 2-[3-[4-[4-[3-(8-cyclopropyl-5-oxo-2,3-dihydro-1,4-benzoxazepin-4-yl)-2-(hydroxymethyl)phenyl]-1H-pyrrolo[2,3-b]pyridin-2-yl]pyrazol-1-yl]azetidin-1-yl]acetonitrile], the half-maximal inhibitory concentration (IC50) in assay [1] was found to be 12 nM; in assay [2], 126 nM.

As a reminder, the IC50 is the point on the concentration scale where inhibition reaches its midpoint.
